How the values were obtained:
Assay in all cases: combination Emax (second highest fraction inhibited in the dose matrix, 72 h); higher = more inhibition; extreme values may be limits of the assay
[1] = system: COR-L279 (Small Cell Lung Carcinoma)
Summary of the method: (§1)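 After 24 hours at 37°C and 5% CO2 in 1536-well plates, cells in DMEM/F12 or RPMI plus 10% FBS received two-drug dose matrices for 72 hours. Viability came from CellTiter-Glo 2.0 luminescence and was scaled as inhibition, anchored at 0 by vehicle wells and at 1 by blank wells. Combination Emax is taken as the second-highest inhibition in the matrix, and Bliss excess as the observed combination effect less EA + EB − EA·EB, with EA and EB the single-agent effects.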

[2] = system: CW-2 (Colorectal Carcinoma)
Summary of the method: as §1

[3] = system: DAN-G (Pancreatic Carcinoma)
Summary of the method: as §1

[4] = system: DMS-114 (Small Cell Lung Carcinoma)
Summary of the method: as §1

G-361 (Melanoma) = system: G-361 (Melanoma)
Summary of the method: as §1

[5] = system: KMS-12-BM (Plasma Cell Myeloma)
Summary of the method: as §1

M059J (Glioblastoma) = system: M059J (Glioblastoma)
Summary of the method: as §1

[6] = system: MN-60 (B-Lymphoblastic Leukemia)
Summary of the method: as §1

[7] = system: MOG-G-CCM (Low Grade Glioma)
Summary of the method: as §1

[8] = system: MOLM-13 (Acute Myeloid Leukemia)
Summary of the method: as §1

[9] = system: NCCIT (Other Solid Carcinomas)
Summary of the method: as §1

NCI-H2731 (Mesothelioma) = system: NCI-H2731 (Mesothelioma)
Summary of the method: as §1

[10] = system: NCI-H3122 (Lung Adenocarcinoma)
Summary of the method: as §1

[11] = system: NCI-H526 (Small Cell Lung Carcinoma)
Summary of the method: as §1

[12] = system: NCI-H661 (Non-Small Cell Lung Carcinoma)
Summary of the method: as §1

[13] = system: NCI-H929 (Plasma Cell Myeloma)
Summary of the method: as §1

[14] = system: PC-3 (Prostate Carcinoma)
Summary of the method: as §1

[15] = system: SK-GT-2 (Gastric Carcinoma)
Summary of the method: as §1

[16] = system: ST486 (Burkitt's Lymphoma)
Summary of the method: as §1

[17] = system: SU-DHL-5 (B-Cell Non-Hodgkin's Lymphoma)
Summary of the method: as §1

| Compound | combination Emax [1] | combination Emax [2] | combination Emax [3] | combination Emax [4] | combination Emax (G-361 (Melanoma)) | combination Emax [5] | combination Emax (M059J (Glioblastoma)) | combination Emax [6] | combination Emax [7] | combination Emax [8] | combination Emax [9] | combination Emax (NCI-H2731 (Mesothelioma)) | combination Emax [10] | combination Emax [11] | combination Emax [12] | combination Emax [13] | combination Emax [14] | combination Emax [15] | combination Emax [16] | combination Emax [17] |
| --- | --- | --- | --- | --- | --- | --- | --- | --- | --- | --- | --- | --- | --- | --- | --- | --- | --- | --- | --- | --- |
| COc1cc2c(cc1OCCCCCOc1cc3c(cc1OC)C(=O)N1C=C(C)C[C@H]1C=N3)N=C[C@@H]1CC(C)=CN1C2=O [SG3199] + O=C(c1cc(Cc2n[nH]c(=O)c3ccccc23)ccc1F)N1CCN(C(=O)C2CC2)CC1 [Olaparib] (first compound max 0.001 µM, 7x7, partner max 10 µM) | 0.878 | 0.0839 | 0.137 | 0.0991 | 0.0716 | 0.136 | 0.214 | 0.079 | 0.0595 | 0.554 | 0.0982 | 0.0512 | 0.172 | 0.503 | 0.133 | 0.192 | 0.159 | 0.12 | 0.103 | 0.958 |
| CCc1c2c(nc3ccc(O)cc13)-c1cc3c(c(=O)n1C2)COC(=O)[C@]3(O)CC [SN-38] + CN(C)CCCOc1ccc(-c2ccc3ncc4c(c3c2)n(C2CCOCC2)c(=O)n4C)cn1 [AZD0156] (first compound max 0.3 µM, 7x7, partner max 1 µM) | 1 | 0.624 | 0.532 | 0.514 | 0.324 | 0.96 | 0.978 | 0.838 | 0.429 | 1 | 0.246 | 0.406 | 0.925 | 1 | 0.463 | 0.869 | 0.688 | 0.444 | 0.733 | 1 |
| C[C@@H](c1ccc2nccn2c1)n1nnc2ncc(-c3cnn(C)c3)nc21 [Savolitinib] + CC1(C)CCC(CN2CCN(c3ccc(C(=O)NS(=O)(=O)c4ccc(NCC5CCOCC5)c([N+](=O)[O-])c4)c(Oc4cnc5[nH]ccc5c4)c3)CC2)=C(c2ccc(Cl)cc2)C1 [Venetoclax] (first compound max 1 µM, 7x7, partner max 1 µM) | 0.199 | 0.117 | 0.0972 | 0.299 | 0.106 | 0.97 | 0.182 | 0.125 | 0.204 | 0.923 | 0.182 | 0.144 | 0.153 | 0.621 | 0.115 | 0.261 | 0.121 | 0.139 | 0.118 | 0.142 |
| C[C@@H](c1ccc2nccn2c1)n1nnc2ncc(-c3cnn(C)c3)nc21 [Savolitinib] + Cc1c2c(nn1C)CSCc1cc(n(C)n1)CSc1cc(c3ccccc3c1)OCCCc1c(C(=O)O)n(C)c3c-2c(Cl)ccc13 [AZD5991] (first compound max 1 µM, 7x7, partner max 1 µM) | 0.244 | 0.157 | 0.195 | 0.551 | 0.358 | 1 | 0.204 | 0.114 | 0.212 | 1 | 0.457 | 0.119 | 0.188 | 0.43 | 0.491 | 1 | 0.121 | 0.163 | 0.483 | 1 |
| Cn1cnc2c(F)c(Nc3ccc(Br)cc3Cl)c(C(=O)NOCCO)cc21 [Selumetinib] + C=CCn1c(=O)c2cnc(Nc3ccc(N4CCN(C)CC4)cc3)nc2n1-c1cccc(C(C)(C)O)n1 [AZD1775] (first compound max 10 µM, partner max 1 µM) | 0.432 | 0.464 | 0.811 | 0.192 | 0.826 | 0.916 | 0.262 | 0.282 | 0.357 | 1 | 0.773 | 0.194 | 0.78 | 0.69 | 0.553 | 0.684 | 0.165 | 0.652 | 0.978 | 0.984 |
| Cn1cnc2c(F)c(Nc3ccc(Br)cc3Cl)c(C(=O)NOCCO)cc21 [Selumetinib] + CC(C)n1c(=O)n(C)c2cnc3cc(F)c(-c4ccc(OCCCN5CCCCC5)nc4)cc3c21 [AZD1390] (first compound max 10 µM, 7x7, partner max 0.3 µM) | 0.194 | 0.252 | 0.15 | 0.199 | 0.674 | 0.295 | 0.107 | 0.052 | 0.125 | 0.767 | 0.0608 | 0.0731 | 0.552 | 0.0826 | 0.0857 | 0.611 | 0.0591 | 0.113 | 0.455 | 0.299 |
| Cn1cnc2c(F)c(Nc3ccc(Br)cc3Cl)c(C(=O)NOCCO)cc21 [Selumetinib] + CCN(CCO)CCCOc1ccc2c(Nc3cc(CC(=O)Nc4cccc(F)c4)[nH]n3)ncnc2c1 [AZD2811] (first compound max 10 µM, 7x7, partner max 1 µM) | 0.765 | 0.349 | 0.519 | 0.281 | 0.798 | 0.397 | 0.237 | 0.342 | 0.457 | 0.999 | 0.109 | 0.201 | 0.653 | 0.32 | 0.0527 | 0.698 | 0.141 | 0.173 | 0.852 | 0.915 |
